Here are results for one molecule from patent US20100298280A1, “Compounds for the Modulation of Huntingtin Aggregation, Methods and Means for Identifying Such Compounds” (priority 2007, published 2010).

Series [1] has as its system flies expressing Htt-Exon-1Q93 in all neurons. Description: Climbing assay in a Drosophila model of HD. Type of series: in vivo. As to the method:
(A) Expression of the htt proteins in transgenic flies is driven by the bipartite expression system upstream activator sequence (UAS)-GAL4 (yeast transcriptional activator). Stocks w; P(w^+mC; w+; elav−GAL4/CyO) and w; P(w+mC=UAS-Q93httexon1) were crossed in order to obtain flies expressing mutant htt fragments in all neurons.
(B, C) Flies expressing Htt-Exon-1Q93 were fed with khayanthone (100 μM, 250 μM) or DMSO supplemented food. Effects of khayanthone on flies' motor ability were measured with the climbing assay. For this purpose flies were placed in a vial, then the height half of them were able to climb from the bottom within 60 sec was determined. In addition the time was measured which half of them needed to climb up 6 cm. […] Each curve represents a population of ˜40 flies. Error bars represent the SD of 5 repeats on each measuring point.
Flies were mated at 25° C. in vials containing standard food supplemented with different concentrations of the compound tested. Adults were transferred to vials containing fresh food supplemented with different concentrations of khayanthone (100 μM, 250 μM, and DMSO control) every 3 days after eclosion.
Effects of khayanthone on the flies' motor ability were measured with the climbing assay. For this purpose flies were placed in a vial, then the height, which half of them were able to climb from the bottom within 60 sec, was determined. In addition, the time was measured which half of them needed to climb up 6 cm. The assays were repeated five times on each population sample.

In another series the test system is CHO-AA8/Q68-Q68 cells. Description: Propidium iodide exclusion assay (viability, cell number) following the FRET assay. The method, then: CHO-AA8/Q68-Q68, CHO-AA8/Q17-Q17 and CHO-AA8 cells were seeded in 96 well plates. After attachment of the cells, the medium was exchanged for Ham's F 12 medium containing 10% doxicycline free FBS and 2% DMSO supplemented with compounds. After 48 h the fluorescence intensities of cells were measured using a fluorescence plate reader (Fluoroscan Ascent, Thermo Scietific) and filtersets for CFP (ex 444 nm, em 485 nm), YFP(ex 485 nm, em 538 nm) and FRET (ex 444 nm, em 538 nm). After correction of background fluorescence (subtraction of CHO-AA8 cell fluorescence intensities) the FRET signal was determined using the method: FA=(FRET-a*YFP)/CFP with a=0.11 (Zal u. Gascoigne 2004, Zal et al. 2002). In following, the viability of cells was measured using a propidium iodide exclusion assay (Sattler et al. 1997). PI was added to the cells at final concentration of 0.15 mg/ml. After 15 minutes the PI fluorescence intensity was measured (ex 530 nm, em 620 nm). The cells were then lysed with 0.5% Triton X-100 (TX100) and the PI fluorescence intensity was measured again. Viability of cells was calculated as viability=1−(PIbefore TX100/PIafter TX100).
(§1) The FRET-measurement was performed 48 h later.

The subject of another series is HSP70. Description: Western blot of heat shock protein expression in SH-SY5Y cells. The following applies: SH-SY5Y cell line, increasing concentration. Type of series: cell-based. As to the method: (§2) Utilizing Western-blot analysis concentration-dependent effects of khayanthone on protein expression of HSP40, HSP70, and HSP90 were detected. Immuno detection was performed using HSP specific monoclonal antibodies, respectively.
(§3) We examined effects of khayanthone on the expression of heat shock proteins, preferentially HSP40, HSP70 and HSP90, because of their impacts in neurodegenerative disease and cancer. Heat shock protein expression was determined in neuronal cells (SH-SY5Y cell line) by western blot analysis.

In a further series the test system is HSP90. The description is as above. The settings on record: SH-SY5Y cell line, increasing concentration. Type of series: cell-based. The method, then: as §2, §3
The test system of the next series is HSP40. Described as above. Type of series: cell-based. The settings on record: SH-SY5Y cell line, increasing concentration. The method, then:
as §2, §3

Series [2] has as its target T1, mutant huntingtin aggregates (HDex1Q68 fused to ECFP/EYFP) (Homo sapiens, UniProt P42858, INS38QQQQQQQQQQQQQQQQQQQQQQQQQQQQQQQQQQQQQQQQQQQQQQQ). Description: Cellular FRET aggregation assay in stable Tet-off CHO-AA8/Q68-Q68 cells. Type of series: cell-based.
Series [3] addresses T1, mutant huntingtin aggregates (HDex1Q68 fused to ECFP/EYFP). The series is described as above. Type of series: cell-based. The following applies: 48 h, 2% DMSO. The method, then:
To determine the potential of possibly inhibiting substances the inventors performed dose response assays at concentrations ranging from 1, to 100 μM.
Screening was performed in 96-well plates (greiner bio-one) containing 1×10^4 cells/well of the stably inducible tet off cell lines htt-mut (six-fold) and CHO-AA8 line (three fold) for background control. Simultaneously, each compound was checked for its potential autofluorescence.
Two stable inducible CHO Tet off cell lines were constructed expressing simultaneously wildtype (CHO-AA8/Q17-Q17) or mutant (CHO-AA8/Q68-Q68) huntingtin fragments fused to ECFP or EYFP (FIG. 1B) after withdrawal of doxicycline (dox). Basal and induced expression levels of huntingtin fusion proteins were examined by Western blot analysis at different time intervals (4, 24, 48, and 72 hours). […] For the screening approach stable inducible huntingtin expressing cell lines were seeded in 96-well plates and the fluorescence intensities were measured with a fluorescence plate reader.
The test compounds were mixed in a fresh doxicycline-free medium with 2% DMSO and added to the Tet off cell lines two to three hours after seeding and attachment of the cells.
as §1
Subsequently, a second screening round was performed at concentration range 1, 3, and 10 μM, respectively.

Series [4] has as its system proteasome (chymotrypsin activity). Description: Proteasome activity, hydrolysis of Suc-LLVY-AMC in CHO-AA8/Tet-Off cells. Type of series: cell-based. The settings on record: 24 h. The method, then: The concentration-dependent effect of khayanthone, 17-AAG, Gedunin, and Lactacystin on proteasome activity was tested using a non-recombinant CHO Tet-Off cell line. Cells were incubated with the given compounds for 24 h. Subsequently, proteasome activities were measured by a fluoroscan according to the degradation rate of a fluorogenic substrate (Suc-LLVY-AMC). In correlation to DMSO treated controls khayanthone led to an increase of proteasome activity about 40-50% in CHO-AA8/Tet-Off cells.
To confirm this we examined the chymotrypsin activity of the proteasome under the influence of khayanthone and compared data with known substances influencing the proteasomes' activity (gedunin, lactacystin, 17-AAG) (FIG. 4). Adminstration of the selected substances was performed for 24 h, and subsequently chymotrypsin activity of the UPS was determined by measuring the hydrolysis of a fluorogenic reporter (Suc-LLVY-AMC, Biomol).

The mark [5] stands for this setting: after day 18, food with 100 μM, 250 μM.

Molecules are shown by their SMILES. “Also recorded” adds a separate entry of the source.

T1 sequence (P42858 1-88, stated change not applied): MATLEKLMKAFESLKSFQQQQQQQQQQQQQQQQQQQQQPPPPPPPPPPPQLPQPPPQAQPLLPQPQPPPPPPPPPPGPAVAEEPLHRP

For the molecule `CC(=O)O[C@H]1C[C@@H](OC(C)=O)C(C)(C)C2C[C@@H](OC(C)=O)[C@]3(C)C(CC[C@@]4(C)[C@H]([C@H]5CCOC5)C(=O)[C@H]5O[C@]543)[C@]21C` (stereo partly shown) [S1, khayanthone], in series [1] (setting [5]), the “climbing distance in 60 sec (height half of the flies climb)” value is given as ~50 % of the initial distance and the “time half of the flies need for a 6 cm distance” value was 2.3 times of the initial time. The “difference in climbing between treated and untreated flies” value in series [1] (until day 18) was “no detectable difference”. In addition, in series [1] (with increasing age, food with 100 μM, 250 μM), the “motor ability / mobility compared to DMSO treated flies (in words)” value is listed as “improves significantly motor deficits; also recorded: maintain an improved mobility”. For the same molecule, the “Cell number (effect in words)” value with CHO-AA8/Q68-Q68 cells was “unaffected”. In addition, in the series with HSP70, the HSP70 protein expression result was “decreased expression; also recorded: slight decrease”. Moreover, in the series on HSP90, the HSP90 protein expression entry was “decreased expression; also recorded: slight decrease”. Further, the HSP40 protein expression result in the series with HSP40 was “decreased expression; also recorded: slight decrease”. For the same molecule, the “Number of mutant huntingtin aggregates (fluorescence microscopy images)” value in series [2] is given as “decrease with increasing compound concentration”. For the same molecule, the “FRET-signal (effect in words)” value in series [3] was “decreases”. The highest chymotrypsin activity result in series [4] (1 μM) is “about 40%”. Further, the “chymotrypsin activities (decline with increasing concentrations)” value in series [4] (3, 10 μM) is on record as approximately 10%. Moreover, the “increase of proteasome activity” value in series [4] (CHO-AA8/Tet-Off cells, in correlation to DMSO treated controls) is given as 40-50%.
